Like-named read-outs stand apart in the source and are kept apart here. Blank lines part the entries; values can stand above or below the compound they belong to.
Columns and labels:
[1] = biological target: panel of CNS relevant targets, including G-protein coupled receptor and transporters; experiment: Screen against a panel of CNS relevant targets (off-target affinity); assay type: binding; settings: broad range of neurotransmitter transporters, ion channels and other CNS proteins
Source text: From a drug development perspective, characterizing the off-target effects of lead compounds is an important issue, as interactions with off-target molecules may lead to undesirable side effects. Thus we screened xamoterol (S) and the key compound compound 43 against a panel of CNS relevant targets, including G-protein coupled receptor and transporters. […].

[2] = system: LPS-induced TNF-α production in primary microglia; experiment: In vitro primary microglia TNF-α assay (LPS stimulation, ELISA); assay type: cell-based, rat; settings: 4 h
Source text: Mixed glial cells are obtained from the cerebral cortex of Sprague Dawley rat pups at postnatal days 1-3. Briefly, neonates are euthanized by decapitation and their brain tissues are collected for isolation of cortex. The isolated cortex was then trypsinized, triturated, and placed onto tissue culture flasks in DMEM supplemented with 10% fetal bovine serum and 1% Penicillin/Streptomycin. After 10 days in vitro, microglia are harvested by gentle shaking of the growth flask, plated in a 96 well plate at a density of 30,000 cells/well, and incubated at 37° C. overnight. […] Following the 4 h incubation, cell media is collected and the concentration of TNF-α is measured by ELISA (Invitrogen, KRC3011) according to the manufacturer's instruction.
The effects of selected compounds on cellular inflammatory response to LPS are determined in primary microglia extracted from a rat. Briefly, mixed glial cells are obtained from the cerebral cortex of Sprague Dawley rat pups at postnatal days 1-3 and cultured in DMEM supplemented with 10% fetal bovine serum. After 7 days in vitro, microglia are harvested by gentle shaking of the growth flask and plated in a 96 well plate at the density of 3×10^4 cells/well. The cells are used following day. Effects of compounds on LPS-induced TNFα production are determined by incubating cells with LPS along with or without test compounds for 4 hours. Following the 4 hour incubation, cell media are collected and concentration of TNFα was measured by EUSA.

[3] = system: LPS-induced TNF-α response; experiment: In vivo LPS assay; design: species or system C57BI/6J mice; settings: mice, 3 mg/kg 15 min prior to LPS, 90 min post-LPS
Description: Amplification is performed using StepOnePlus (Applied Biosystems).
Following injections, mice are single-housed. At 90 min post-LPS/saline, mice are deeply anesthetized with isoflurane and blood is collected from the right ventricle via cardiac puncture (23 g needle) into lithium heparin-containing vials (BD microtainer plasma tubes). Plasma is separated by centrifugation (11,000 rpm for 3 minutes) within 30 min of collection and stored at −80° C. until analysis. The concentration of TNF-α in the collected plasma is measured by ELISA (Invitrogen, KMC3012) according to the manufacturer's instruction.

ADRB2 = ADRB2 (Homo sapiens (Human), UniProt P07550); experiment: Tag-lite Adrenoceptor Beta2 receptor ligand binding assay; settings: Table 7; read-out: ADRB2 IC50 from binding assay
Description: The subtype selective activity of some compounds of interest was assessed for adrenergic receptor beta 1 (ADRB1) versus adrenergic receptor beta 2 (ADRB2). ADRB1 EC50 from functional assay (nM)^a, Determined using the homogenous time-resolved fluorescence detection method with HEK-293 cells stably expressing human recombinant ADRB1. ADRB2 IC50 from binding assay(nM)^b, Determined using the Tag-lite Adrenoceptor Beta2 receptor ligand binding assay.

ADRB1 [4] = biological target: T1, ADRB1 (Homo sapiens (Human), UniProt P08588); experiment: cAMP assay (homogenous time-resolved fluorescence) in HEK-293 cells stably expressing human recombinant ADRB1; assay type: cell-based; settings: for Emax: HEK293, 0.5 h, percent efficacy compared to the maximum response achieved with isoproterenol, read-out: cAMP pathway % Iso max
Description: Pharmacological effects of compounds at the cAMP pathway mediated by ADRB1 are evaluated by measuring cAMP production using the homogenous time-resolved fluorescence detection method with HEK-293 cells stably expressing human recombinant ADRB1. Briefly, cells are suspended in HBSS buffer completed with 20 mM HEPES (pH 7.4) and 500 μM IBMX (3-isobutyl-1-methylxanthine) and distributed at a density of 3×10^3 cells/well. […] The results are expressed as a percent of the maximum efficacy achieved with isoproterenol. Pharmacological effects of compounds at the cAMP pathway mediated by ADRB2 and ADRB3 are measured as described above using CHO cells stably expressing human recombinant ADRB2 and human SK-N-MC neurotumor cells endogenously expressing ADRB3, respectively.
After 30 minute incubation with compounds, the cells are lysed and the fluorescence donor (Europium-chelated-labeled cAMP tracer; Eu-cAMP tracer) and fluorescence acceptor (cAMP-specific monoclonal antibodies labeled with the ULight™ dye) are added. […] The results are expressed as a percent of the control response to 10 μM isoproterenol. For subtype selectivity determination, same procedure is performed using Chinese hamster ovary (CHO) cells stably expressing human β2-adrenergic receptors or SK-N-MC human neuroblastoma cell line expressing β3-adrenergic receptors.
ADRB1 EC50 from functional assay (nM)^a, Determined using the homogenous time-resolved fluorescence detection method with HEK-293 cells stably expressing human recombinant ADRB1. ADRB2 IC50 from binding assay(nM)^b, Determined using the Tag-lite Adrenoceptor Beta2 receptor ligand binding assay.

C57BI/6J female mice = experiment: 24 day administration, lung and heart weight and fibrosis; assay type: in vivo; settings: 10 mg/kg for 24 days
Description: C57BI/6J female mice were administered with isoproterenol, KSN01-01-15, or KSN01-01-18 at 10 mg/kg for 24 days. After 24 days of treatment, mice were sacrificed, and lung and heart weight were measured. Hearts were then fixed in 10% formalin, and stained with Masson trichrome for evaluation of fibrosis.

ADRB1 [5] = biological target: T1, ADRB1; experiment: β-arrestin assay (PathHunter enzyme fragment complementation, CHO-K1-ADRB1 cells); assay type: cell-based; settings: for concentration-dependent response at the β-arrestin pathway: up to 30 μM; for β-arrestin pathway % Iso max: percent efficacy compared to the maximum response achieved with isoproterenol
Description: Pharmacological activity of compounds in the β-arrestin pathway mediated by ADRB1 are evaluated using an enzyme fragment complementation method with a β-galactosidase functional reporter. An engineered CHO-K1-ADRB1 PathHunter cell line (DiscoveRx) is used in the assay. In this cell line, enzyme acceptor (β-galactosidase fragment) is fused to β-arrestin and enzyme donor (β-galactosidase fragment) is fused to the ADRB1. Thus, activation of the ADRB1 stimulates binding of β-arrestin to the ProLink-tagged ADRB1 and forces complementation of the two enzyme fragments, resulting in the formation of an active β-galactosidase enzyme. Briefly, CHO-K1-ADRB1 PathHunter cell lines are plated in a total volume of 20 μL cell plating reagent (DiscoveRx, 93-0563R0A) at a density of 2,500 cells/well into 384 well microplates and incubated overnight at 37° C. in 5% CO2. […] Chemiluminescent signal is then read with a PerkinElmer Envision™ instrument. The results are expressed as a percent of the maximum efficacy achieved with isoproterenol.
Effects of compounds on β-arrestin signaling pathways are determined using CHO cells stably expressing human β1-adrenergic receptors or human β2-adrenergic receptors with PathHunter® β-Arrestin GPCR assay system (DiscoveRx). In this system, adrenergic receptor is fused in frame with the small enzyme fragment ProLink™ and co-expressed in cell stably expressing at fusion protein of β-arrestin and the larger, N-terminal deletion mutant of β-galactosidase enzyme. Activation of the adrenergic receptor stimulates binding of β-arrestin to the ProLink-tagged receptor and forces complementation of the two enzyme fragments, resulting in the formation of an active β-gal enzyme. This interaction leads to an increase in enzyme activity that can be measured using chemiluminescent detection reagents. The effects of compounds on β-arrestin signaling pathways are determined 90 minutes after incubating the cells with the test compounds.

[6] = Table 7, read-out: ADRB1 EC50 from functional assay
[7] = Table 3, read-out: cAMP pathway ADRB1 EC50
[8] = Table 4, read-out: cAMP pathway ADRB1 EC50
[9] = Table 4, read-out: β-arrestin pathway ADRB1 EC50

Chain of ADRB2 (P07550 whole entry): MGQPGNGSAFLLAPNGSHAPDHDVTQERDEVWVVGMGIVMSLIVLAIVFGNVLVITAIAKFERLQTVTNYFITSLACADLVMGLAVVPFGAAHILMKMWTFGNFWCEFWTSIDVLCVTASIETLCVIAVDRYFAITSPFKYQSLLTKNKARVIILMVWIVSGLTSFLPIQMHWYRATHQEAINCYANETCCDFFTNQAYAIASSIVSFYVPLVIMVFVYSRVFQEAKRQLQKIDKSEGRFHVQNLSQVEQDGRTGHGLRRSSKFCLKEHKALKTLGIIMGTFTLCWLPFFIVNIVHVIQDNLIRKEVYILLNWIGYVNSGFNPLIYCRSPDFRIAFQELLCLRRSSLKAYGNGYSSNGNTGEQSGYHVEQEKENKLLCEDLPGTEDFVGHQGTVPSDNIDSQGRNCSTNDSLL
T1 sequence (P08588 whole entry): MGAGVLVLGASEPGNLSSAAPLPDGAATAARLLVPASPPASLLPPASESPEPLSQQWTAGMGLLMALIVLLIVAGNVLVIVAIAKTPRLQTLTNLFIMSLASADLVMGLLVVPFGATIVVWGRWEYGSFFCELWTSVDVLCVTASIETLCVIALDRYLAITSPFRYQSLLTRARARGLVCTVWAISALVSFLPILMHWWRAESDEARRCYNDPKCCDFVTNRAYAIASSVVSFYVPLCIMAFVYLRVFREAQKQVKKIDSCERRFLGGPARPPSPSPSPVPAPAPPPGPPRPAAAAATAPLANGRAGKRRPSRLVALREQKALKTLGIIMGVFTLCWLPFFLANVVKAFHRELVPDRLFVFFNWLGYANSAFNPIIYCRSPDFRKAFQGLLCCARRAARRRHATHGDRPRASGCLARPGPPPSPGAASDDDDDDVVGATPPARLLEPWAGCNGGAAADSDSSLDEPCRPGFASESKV

SMILES: O=C(NCCNC[C@H](O)COc1ccc(O)cc1)N1CCOCC1 [(S)-Xamoterol, reference compound]
Ki [1]: > 10000 nM
inhibition of LPS-induced TNF-α production ([2]; rat primary microglia, LPS 10 ng/ml, compound 10 μM): approximately 60%
LPS-induced TNF-α response in periphery (plasma) [3]: markedly inhibited
LPS-induced inflammatory response in the brain (TNF-α, IL-1β, IL-6 gene expression) [3]: attenuated

SMILES: N#Cc1cc(OC[C@@H](O)CNCCNC(=O)N2CCOCC2)ccc1O [Compound 29]
EC50 (ADRB1 [4]; [7]): 1 to 10 nM

SMILES: CC(C)NCC(O)c1ccc(O)c(O)c1 (centres unmarked) [isoproterenol, reference compound]
inhibition at 10 µM ([2]; Rattus norvegicus, Microglia, read-out: inhibition of LPS-induced TNF-α production): 85%
fibrotic changes in heart and heart weight (C57BI/6J female mice): induces fibrotic changes in heart and increases heart weight
fibrotic changes in lung and lung weight (C57BI/6J female mice): induces fibrotic changes in lung and increases lung weight
morphological changes in heart (C57BI/6J female mice): produces morphological changes in heart

SMILES: COc1ccc(CCOCCNC[C@H](O)COc2ccc(O)cc2)cc1OC [Compound 44]
β-arrestin pathway % Iso max (ADRB1 [5]; Table 4): 14%
EC50 (ADRB1 [5]; [9]): 100 to 1000 nM
Emax (ADRB1 [4]; Table 4): 60.2 ± 9.9%
EC50 (ADRB1 [4]; [8]): 100 to 1000 nM

SMILES: O=C(CCCNC[C@H](O)COc1ccc(O)cc1)N1CCOCC1 [Compound 45]
β-arrestin pathway % Iso max (ADRB1 [5]; Table 4): 18.6%
EC50 (ADRB1 [5]; [9]): 100 to 1000 nM
Emax (ADRB1 [4]; Table 4): 71.9 ± 1.3%
EC50 (ADRB1 [4]; [8]): 10 to 100 nM

SMILES: O=C(NCCNC[C@H](O)COc1cc(F)c(O)cc1F)N1CCOCC1 [Compound 28]
Emax (ADRB1 [4]; Table 3): 21.5 ± 0.5%
EC50 (ADRB1 [4]; [7]): 1 to 10 nM

SMILES: COc1ccccc1CC(C)NC[C@H](O)COc1cccc2[nH]nc(C)c12 (some centres unmarked) [Compound 72]
IC50 (ADRB2): 0.009 nM
EC50 (ADRB1 [4]): 0.8 nM

SMILES: O=C(CCNC[C@H](O)COc1ccc(O)cc1)N1CCOCC1 [Compound 46]
β-arrestin pathway % Iso max (ADRB1 [5]; Table 4): 13.7%
EC50 (ADRB1 [5]; [9]): 10 to 100 nM
Emax (ADRB1 [4]; Table 4): 73.9 ± 10.2%
EC50 (ADRB1 [4]; [8]): 100 to 1000 nM

More lines, main results first:

IC50 (ADRB2): 0.144 nM
EC50 (ADRB1 [4]; [6]): 44.7 nM
SMILES: Cc1n[nH]c2cccc(OC[C@@H](O)CNC(C)(C)COc3ccccn3)c12 [Compound 86]

Emax (ADRB1 [4]; Table 4): 42 ± 2.4%
EC50 (ADRB1 [4]; [8]): 100 to 1000 nM
SMILES: O=C(NCCNC[C@H](O)COc1ccc(O)cc1)N1CC(O)C1 [Compound 47]
concentration-dependent response at the β-arrestin pathway (ADRB1 [5]): did not produce concentration-dependent response up to 30 μM

Emax (ADRB1 [4]; Table 4): 40.1 ± 3.9%
SMILES: O=C(NCCNC[C@H](O)COc1ccc(O)cc1)N1CC(CO)C1 [Compound 48]
concentration-dependent response at the β-arrestin pathway (ADRB1 [5]): did not produce concentration-dependent response up to 30 μM

IC50 (ADRB2): 0.024 nM
EC50 (ADRB1 [4]; [6]): 9.2 nM
SMILES: COc1ccccc1OCCNC[C@H](O)COc1cccc2[nH]nc(C)c12 [Compound 52]

IC50 (ADRB2): 0.048 nM
EC50 (ADRB1 [4]; [6]): 1 nM
SMILES: Cc1n[nH]c2cccc(OC[C@@H](O)CNCCc3ccccc3C(F)(F)F)c12 [Compound 69]

IC50 (ADRB2): 0.23 nM
EC50 (ADRB1 [4]; [6]): 5 nM
SMILES: Cc1n[nH]c2cccc(OC[C@@H](O)CNCCOc3ccccn3)c12 [Compound 87]

efficacy at the β-arrestin pathway compared to the full agonist isoproterenol (ADRB1 [5]): 36.5%
β-arrestin pathway % Iso max (ADRB1 [5]; Table 4): 36.5%
EC50 (ADRB1 [5]; [9]): 10 to 100 nM
EC50 (ADRB1 [5]; read-out: EC50 at the β-arrestin pathway via ADRB1): 32.2 nM
agonistic activity on the ADRB1-mediated cAMP pathway (ADRB1 [4]): full agonistic activity
EC50 (ADRB1 [4]; [8]): 1 to 10 nM
SMILES: COc1ccc(CCNCC(O)COc2ccc(O)c(O)c2)cc1OC (centres unmarked) [Compound 50]

IC50 (ADRB2): 0.38 nM
EC50 (ADRB1 [4]; [6]): 35.4 nM
SMILES: COc1ccc(OCCNC[C@H](O)COc2cccc3[nH]nc(C)c23)cc1OC [Compound 55]

IC50 (ADRB2): 0.065 nM
fibrotic changes in heart and heart weight (C57BI/6J female mice): did not induce these changes
fibrotic changes in lung and lung weight (C57BI/6J female mice): did not induce these changes
morphological changes in heart (C57BI/6J female mice): did not induce these changes
EC50 (ADRB1 [4]; [6]): 3.5 nM
SMILES: Cc1n[nH]c2cccc(OC[C@@H](O)CNC(C)(C)C)c12 [Compound 75]

IC50 (ADRB2): 0.019 nM
EC50 (ADRB1 [4]; [6]): 3.4 nM
SMILES: COCC(C)(C)NC[C@H](O)COc1cccc2[nH]nc(C)c12 [Compound 90]

Source: US11173144B2, “Adrenergic receptor modulating compounds and methods of using the same” (The Board of Trustees of the Leland Stanford Junior …, priority 2016, dated 2021)
